Where a name gives a salt, the structure may show the parent alone.
What was measured:
[1] = target: T1, 5HT2-receptors (Rattus norvegicus, UniProt P14842); assay: Affinity for 5HT2-receptors (Test 1, 3H-ketanserin binding, Leysen et al.); details: 3H-ketanserin as ligand
T1 construct: from tissue
Description: Test 1. Affinity for 5HT2-receptors
The binding assay was carried out essentially as described by Leysen et al., (Mol. Pharmcol. 21, 301-314, 1982) using 3 H-kezanserine as ligand.

[2] = target: T2, 5HT1A-receptors (Bos taurus, UniProt F6Q2H9); assay: Affinity for 5HT1A-receptors (Test 2, Peroutka binding assay)
T2 construct: from tissue
T2 sequence (F6Q2H9 1-422): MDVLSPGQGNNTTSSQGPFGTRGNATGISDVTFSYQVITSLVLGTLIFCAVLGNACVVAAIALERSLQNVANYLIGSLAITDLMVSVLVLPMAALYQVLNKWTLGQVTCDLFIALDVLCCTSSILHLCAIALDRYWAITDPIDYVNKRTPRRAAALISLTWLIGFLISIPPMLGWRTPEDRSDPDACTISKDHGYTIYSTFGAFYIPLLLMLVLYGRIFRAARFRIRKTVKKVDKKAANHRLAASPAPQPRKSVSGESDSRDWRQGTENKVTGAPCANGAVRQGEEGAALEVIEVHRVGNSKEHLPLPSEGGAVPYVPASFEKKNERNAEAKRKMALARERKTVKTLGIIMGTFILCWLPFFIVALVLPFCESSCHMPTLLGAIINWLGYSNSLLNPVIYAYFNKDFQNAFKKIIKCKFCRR

T1 sequence (P14842 whole entry): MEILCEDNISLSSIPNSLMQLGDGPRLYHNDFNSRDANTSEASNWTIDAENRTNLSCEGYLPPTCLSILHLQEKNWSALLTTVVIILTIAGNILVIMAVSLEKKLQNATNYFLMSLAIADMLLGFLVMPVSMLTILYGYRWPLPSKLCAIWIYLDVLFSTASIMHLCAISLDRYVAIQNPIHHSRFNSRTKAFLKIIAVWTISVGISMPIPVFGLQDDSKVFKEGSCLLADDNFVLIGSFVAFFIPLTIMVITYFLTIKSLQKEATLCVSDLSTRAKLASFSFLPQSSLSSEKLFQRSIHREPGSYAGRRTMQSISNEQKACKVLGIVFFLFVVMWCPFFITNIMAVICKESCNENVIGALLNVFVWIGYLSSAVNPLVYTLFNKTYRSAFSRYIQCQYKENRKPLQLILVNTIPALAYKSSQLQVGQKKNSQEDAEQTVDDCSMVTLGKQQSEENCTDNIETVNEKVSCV

Compound	Ki [1]	Ki [2]
CCOC(=O)c1cccnc1N1CCN(CCCC(c2ccc(F)cc2)c2ccc(F)cc2)CC1 [2:1, 3-Pyridinecarboxylic acid (2-(4-(4,4-bis(4-fluorophenyl)butyl)-1-piperazinyl-)ethyl ester hydrochloride]	5.7 nM	1.2 nM
CC(C)CCOC(=O)c1cccnc1N1CCN(CCCC(c2ccc(F)cc2)c2ccc(F)cc2)CC1 [2:7, 1-[4,4-Bis(p-fluorophenyl)butyl]-4-(3-isoamyloxycarbonyl-2-pyridyl)-piperazine, hydrochloride]	2.7 nM	14 nM
O=C(OCc1ccccn1)c1cccnc1N1CCN(CCCC(c2ccc(F)cc2)c2ccc(F)cc2)CC1 [2:10, 1-[4,4-Bis(p-fluorophenyl)butyl]-4-[3-(2-pyridinylmethoxycarbonyl)-2-pyridyl]-piperazine, hydrochloride]	0.6 nM	
COC(=O)c1cccnc1N1CCN(CCCC(c2ccc(F)cc2)c2ccc(F)cc2)CC1 [2:4, 1-[4,4 -Bis(p-fluorophenyl)butyl]-4-(3-methoxycarbonyl-2-pyridyl)-piperazine, hydrochloride]	4 nM	0.7 nM
